Assay results: US20240254121A1, “ALKYLAMIDE SUBSTITUTED, ANNULATED IMIDAZOLES AND USE THEREOF AS INSECTICIDES” (Bayer Aktiengesellschaft, priority 2021, published 2024)

Key:
Format in all cases: in vivo
[1] = system: adult mosquitoes Aedes aegypti strain MONHEIM; experiment: Aedes aegypti test (AEDSAE surface treatment & contact assay); settings: 24 hours after contact, read-out: efficacy (mortality); for mortality at 20 mg/m2: surface concentration 20 mg/m^2, 30 minutes exposure; for mortality at 4 mg/m2: surface concentration 4 mg/m^2, 30 minutes exposure
Experimental: Aedes aegypti Test (AEDSAE Surface Treatment & Contact Assay) • Solvent: Aceton+2000 ppm rapeseed oil methyl ester (RME)
(§1) In order to produce a sufficient, active ingredient containing solution it is necessary to solve the test compound in the solvent-mix (acetone at 2 mg/ml/RME 2000 ppm). This solution is pipetted onto a glazed tile and after evaporation of the acetone, adult mosquitoes of the species Aedes aegypti strain MONHEIM are placed onto the dried surface. The exposure time is 30 minutes. Mortality in percent (%) is determined 24 hours after contact of the insects to the treated surface. 100% mortality means that all tested insects are dead, whereas 0% means that no insect died.

[2] = system: cattle tick larvae (Rhipicephalus microplus); experiment: Rhipicephalus (Boophilus) microplus in-vitro contact test, larval cattle tick (strain Parkhurst, resistant against synthetic pyrethroids); settings: after 48 hours, read-out: efficacy (larvae dead or moribund); for pest or weed control at 1 µg/cm2, 100 g/ha: 1 μg/cm^2 (=100 g/ha); for pest or weed control at 5 µg/cm2, 500 g/ha: 5 μg/cm^2 (=500 g/ha)
Experimental: Rhipicephalus (Boophilus) Microplus—In-Vitro Contact Tests Larval Cattle Tick (Strain Parkhurst, Resistant Against Synthetic Pyrethroids)
9 mg compound is solved in 1 mL acetone and diluted with acetone to the desired concentration. 250 μL of the test solution is filled in 25 mL glass test tubes and homogeneously distributed on the inner walls by rotation and tilting on a shaking device (2 h at 30 rpm). With a compound concentration of 900 ppm, an inner surface of 44.7 cm^2 and a homogeneous distribution, a dose of 5 μg/cm^2 is achieved.
After the solvent has evaporated, each test tube is filled with 20-50 cattle tick larvae (Rhipicephalus microplus), closed with a perforated lid and incubated in a horizontal position at 85% relative humidity and 27° C. in an incubator. After 48 hours efficacy is determined. The larvae are patted on the ground of the tubes and negative geotactic behavior is recorded.
An efficacy of 100% means all larvae are dead or moribund; 0% means no larvae are dead or moribund.

[3] = system: larvae of the banded cucumber beetle (Diabrotica balteata); experiment: Diabrotica balteata spray test; settings: 168 h, 100 g/ha (=32 μg/well), wheat seeds, after 7 days, read-out: efficacy (seedling growth)
Experimental: Diabrotica Balteata—Spray Test
• Solvent: 78.0 Parts by Weight of Acetone • 1.5 parts by weight of dimethylformamide • Emulsifier: Alkylarylpolyglycol Ether
(§2) To produce a suitable preparation of active compound, 1 part by weight of active compound is mixed with the stated amount of solvent, and the concentrate is diluted with water, containing an emulsifier concentration of 1000 ppm, to the desired concentration. Further test concentrations are prepared by dilution with emulsifier containing water.
Soaked wheat seeds (Triticum aestivum) are placed in a multiple well plate filled with agar and some water and are incubated for 1 day to germinate (5 seeds per well). The germinated wheat seeds are sprayed with a test solution containing the desired concentration of the active ingredient. Afterwards each unit is infected with 10-20 larvae of the banded cucumber beetle (Diabrotica balteata).
After 7 days efficacy in % is determined. 100% means all the seedlings have grown up like in the untreated, uninfected control; 0% means none of the seedlings have grown.

[4] = system: adult engorged female ticks (Rhipicephalus microplus); experiment: Rhipicephalus (Boophilus) microplus injection test; settings: 4 μg/tick, egg deposition after 7 days
Experimental: Rhipicephalus (Boophilus) Microplus—Injection Test
• Solvent: Dimethyl Sulfoxide
To produce a suitable preparation of active compound, 10 mg of active compound are dissolved in 0.5 mL solvent, and the concentrate is diluted with solvent to the desired concentration.
Five adult engorged female ticks (Rhipicephalus microplus) are injected with 1 μL compound solution into the abdomen. The ticks are transferred into replica plates and incubated in a climate chamber.
After 7 days egg deposition of fertile eggs is monitored. Eggs where fertility is not visible are stored in a climate chamber till hatching after about 42 days. An efficacy of 100% means all eggs are infertile; 0% means all eggs are fertile.

[5] = system: brown planthopper (Nilaparvata lugens); experiment: Nilaparvata lugens spray test; settings: 96 h, rice plants, after 4 days
Experimental: Nilaparvata lugens—Spray Test • Solvent: 78.0 parts by weight of acetone • 1.5 parts by weight of dimethylformamide • Emulsifier: alkylarylpolyglycol ether
as §2, with “solvents” for “solvent,”, “and” for “and the concentrate”
Rice plants (Oryza sativa) are sprayed with a preparation of the active ingredient of the desired concentration and the plants are infested with the brown planthopper (Nilaparvata lugens).
After 4 days mortality in % is determined. 100% means all planthoppers have been killed and 0% means none of the planthoppers have been killed.

[6] = system: adult unfed cat fleas (Ctenocephalides felis); experiment: Ctenocephalides felis oral test; settings: 48 h, 100 ppm in citrated cattle blood, after 2 days
Experimental: Ctenocephalides felis—Oral Test • Solvent: Dimethyl Sulfoxide
To produce a suitable preparation of active compound, 10 mg of active compound are dissolved in 0.5 mL solvent, and the concentrate is diluted with citrated cattle blood to the desired concentration.
Approximately 20 adult unfed cat fleas (Ctenocephalides felis) are placed in a flea chamber whose top and bottom is covered with gauze. A chamber whose bottom is sealed with parafilm, is filled with the blood-compound solution and placed on top of the flea chamber, so that the fleas can suck the blood. The blood chamber is heated to 37° C. whereas the flea chamber is kept at room temperature.
After 2 days mortality in % is determined. 100% means all the fleas have been killed; 0% means none of the fleas have been killed.

[7] = system: adult flies Musca domestica strain WHO-N; experiment: Musca domestica test (MUSCDO surface treatment & contact assay); settings: 24 hours after contact, read-out: efficacy (mortality); for mortality at 20 mg/m2: surface concentration 20 mg/m^2, 30 minutes exposure
Experimental: Musca domestica Test (MUSCDO Surface Treatment & Contact Assay) • Solvent: Aceton+2000 ppm rapeseed oil methyl ester (RME)
as §1, with “flies” for “mosquitoes”, “Musca domestica” for “Aedes aegypti”, “WHO-N” for “MONHEIM”

[8] = system: fall armyworm larvae (Spodoptera frugiperda); experiment: Spodoptera frugiperda spray test; settings: 168 h, maize leaf sections, after 7 days
Experimental: Spodoptera frugiperda—Spray Test • Solvent: 78.0 parts by weight acetone • 1.5 parts by weight dimethylformamide • Emulsifier: alkylarylpolyglycol ether
as §2, with “solvents” for “solvent,”, “and” for “and the concentrate”
Maize (Zea mays) leaf sections are sprayed with a preparation of the active ingredient of the desired concentration. Once dry, the leaf sections are infested with fall armyworm larvae (Spodoptera frugiperda).
After 7 days mortality in % is determined. 100% means all caterpillars have been killed and 0% means none of the caterpillars have been killed.

[9] = system: larvae of the southern green stink bug (Nezara viridula); experiment: Nezara viridula spray test; settings: 96 h, barley plants, after 4 days
Experimental: Nezara viridula—Spray Test • Solvent: 78.0 parts by weight of acetone • 1.5 parts by weight of dimethylformamide • Emulsifier: alkylarylpolyglycol ether
as §2
Barley plants (Hordeum vulgare) are sprayed with a test solution containing the desired concentration of the active ingredient and are infested with larvae of the southern green stink bug (Nezara viridula).
After 4 days mortality in % is determined. 100% means all the stink bugs have been killed; 0% means none of the stink bugs have been killed.

[10] = system: adult mosquitoes Culex quinquefasciatus strain P00; experiment: Culex quinquefasciatus test (CULXFA surface treatment & contact assay); settings: 24 hours after contact, read-out: efficacy (mortality)
Experimental: Culex quinquefasciatus Test (CULXFA Surface Treatment & Contact Assay) • Solvent: Aceton+2000 ppm rapeseed oil methyl ester (RME)
as §1, with “2,000” for “2000”, “Culex quinquefasciatus” for “Aedes aegypti”, “P00” for “MONHEIM”

[11] = system: green peach aphid (Myzus persicae); experiment: Myzus persicae spray test; settings: foliar, 120 h, 100 g/ha, Chinese cabbage leaf disks, after 5 days
Experimental: Myzus persicae—Spray Test • Solvent: 78.0 parts by weight acetone • 1.5 parts by weight dimethylformamide • Emulsifier: alkylarylpolyglycol ether
as §2, with “solvents” for “solvent,”, “and” for “and the concentrate”
Chinese cabbage (Brassica pekinensis) leaf disks infected with all instars of the green peach aphid (Myzus persicae), are sprayed with a preparation of the active ingredient of the desired concentration.
(§3) After 5 days mortality in % is determined. 100% means all aphids have been killed and 0% means none of the aphids have been killed.

[12] = system: southern root-knot nematode (Meloidogyne incognita); experiment: Meloidogyne incognita test; settings: 20 ppm, lettuce, after 14 days
Experimental: Meloidogyne Incognita—Test
• Solvent: 125.0 parts by weight of acetone
(§4) To produce a suitable preparation of active compound, 1 part by weight of active compound is mixed with the stated amount of solvent, and the concentrate is diluted with water to the desired concentration.
Vessels are filled with sand, a solution of the active ingredient, a suspension containing eggs and larvae of the southern root-knot nematode (Meloidogyne incognita) and lettuce seeds. The lettuce seeds germinate and the seedlings grow. Galls develop in the roots.
After 14 days the nematicidal effect in percent is determined by the formation of galls. 100% means no galls were found and 0% means the number of galls found on the roots of the treated plants was equal to that in untreated control plants.

[13] = system: cotton aphid (Aphis gossypii); experiment: Aphis gossypii oral test; settings: 120 h, after 5 days
Experimental: Aphis gossypii—Oral Test • Solvent: 100 Parts by Weight Acetone
as §4
(§5) 50 μL compound solution is filled in microtiter plates and 150 μL IPL41 insect medium (33%+15% sugar) is added to obtain a total volume of 200 μL per well. Afterwards the plates are sealed with parafilm through which a mixed population of the cotton aphid (Aphis gossypii) can suck on the compound preparation.
as §3

[14] = system: green peach aphid (Myzus persicae); experiment: Myzus persicae oral test; settings: 120 h, after 5 days
Experimental: Myzus persicae—Oral Test • Solvent: 100 parts by weight acetone
as §4
as §5, with “green peach” for “cotton”, “(Myzus persicae)” for “(Aphis gossypii)”
as §3

[15] = surface concentration 4 mg/m^2, 30 minutes exposure

SMILES	mortality at 20 mg/m2 [1]	pest or weed control at 1 µg/cm2, 100 g/ha [2]	pest or weed control at 5 µg/cm2, 500 g/ha [2]	pest or weed control at 32 µg/disc, 100 g/ha [3]	efficacy (infertile eggs) [4]	mortality at 500 g/ha [5]	mortality at 100 ppm [6]	mortality at 20 mg/m2 [7]	mortality at 100 g/ha [8]	mortality at 4 mg/m2 [1]	mortality at 500 g/ha [9]	mortality at 4 mg/m2 [10, 15]	mortality at 20 mg/m2 ([10]; surface concentration 20 mg/m^2, 30 minutes exposure)	mortality at 100 g/ha [11]	mortality at 4 mg/m2 [7, 15]	nematicidal effect (formation of galls) [12]	mortality at 100 ppm [13]	mortality at 20 ppm [14]
C[C@H](NC(=O)c1cc(OC(F)(F)F)cc(C(C)(C)C#N)c1)c1nc2cccnc2n1-c1ccc(C#N)cn1 [Example I-1]	80 to 100%	90%	80%	100%	100%	100%	100%	80 to 100%	100%									
C[C@H](NC(=O)c1cc(OC(F)(F)F)cc(C2(C#N)CC2)c1)c1nc2cccnc2n1-c1ccc(C#N)cn1 [Example I-3]	80 to 100%	90%	90%	100%	100%	90%		80 to 100%	100%	80 to 100%	100%	80 to 100%	80 to 100%	100%	80 to 100%			
CNC(=O)c1ccc(-n2c(C(C)NC(=O)c3cc(C(F)(F)F)cc(C(F)(F)F)c3)nc3cccnc32)nc1 (stereo not drawn) [Example I-25]											100%					90%		
CNC(=O)c1ccc(-n2c(C(C)NC(=O)c3cc(OC(F)(F)F)cc(OC(F)(F)F)c3)nc3cccnc32)nc1 (stereo not drawn) [Example I-27]										80 to 100%						90%	100%	100%
C[C@H](NC(=O)c1cc(OC(F)(F)F)cc(S(C)(=O)=O)c1)c1nc2cc(F)cnc2n1-c1ccc(C#N)cn1 [Example I-38]				100%					100%		100%					90%		
